Test: Inhibitory activity against binding of horseradish peroxidase labelled Maclura pomifera, isolated from the seeds of osage orange tree to poly (acrylamide-co-allyl alpha-Galactopyranoside

First: CC(=O)N[C@@H](CCCCN(CCC1OC(CO)C(O)C(O)C1O)CCC1OC(CO)C(O)C(O)C1O)C(=O)NCC(N)=O (stereo partly specified)
Second: CCN(CC)C(=O)CNC(=O)[C@H](CCCCNC(=O)CN(CCC1OC(CO)C(O)C(O)C1O)C(=O)CC1OC(CO)C(O)C(O)C1O)NC(C)=O (stereo partly specified)
The IC50 of the first is 2.9-fold lower: 1.48 mM for the first, 4.31 mM for the second.

Going from `CC(=O)N[C@@H](CCCCNC(=O)c1cc(NC(=O)CNC(=O)[C@H]2CCCN2C(=O)C[C@@H]2O[C@@H](CO)[C@H](O)[C@H](O)[C@@H]2O)cc(NC(=O)CNC(=O)[C@@H]2CCCN2C(=O)C[C@H]2O[C@@H](CO)[C@H](O)[C@H](O)[C@@H]2O)c1)C(=O)NCC(=O)NCc1ccccc1` to `CC(=O)N[C@@H](CCCCNC(=O)c1cc(NC(=O)CNC(=O)[C@H](C)NC(=O)C[C@H]2O[C@H](CO)[C@H](O)[C@H](O)[C@H]2O)cc(NC(=O)CNC(=O)[C@@H](C)NC(=O)C[C@H]2O[C@H](CO)[C@H](O)[C@H](O)[C@H]2O)c1)C(=O)NCC(=O)NCc1ccccc1`, the IC50 rises from 1.5 mM to 2.84 mM (1.9-fold). The first is the more potent here.

Compared with `CCN(CC)C(=O)CC1OC(CO)C(O)C(O)C1O` (stereo unspecified), `CC(=O)N[C@@H](CCCCNC(=O)CC1OC(CO)C(O)C(O)C1O)C(=O)NCC(N)=O` (stereo partly specified) is 1.6-fold higher in IC50: 2.57 mM for the first, 4.18 mM for the second.

Reference: ChEMBL document CHEMBL1130982, “Diversity of C-linked neoglycopeptides for the exploration of subsite-assisted carbohydrate binding interactions” (Bioorg Med Chem Lett, 1998)
